# Target: T1, PIKFYVE (Homo sapiens, UniProt Q9Y2I7)
# T1 construct: purchased Eurofins (KINOMEscan); host or cells: E. coli BL21-derived (T7 phage display) or HEK-293
# Experiment: KINOMEscan Kinase Assay (Eurofins), PIKFYVE inhibitory activity
# Type: binding
# Settings: for IC50: KINOMEscan; for inhibition at 0.001 µM: @ 1 nM
# T1 sequence (Q9Y2I7 whole entry): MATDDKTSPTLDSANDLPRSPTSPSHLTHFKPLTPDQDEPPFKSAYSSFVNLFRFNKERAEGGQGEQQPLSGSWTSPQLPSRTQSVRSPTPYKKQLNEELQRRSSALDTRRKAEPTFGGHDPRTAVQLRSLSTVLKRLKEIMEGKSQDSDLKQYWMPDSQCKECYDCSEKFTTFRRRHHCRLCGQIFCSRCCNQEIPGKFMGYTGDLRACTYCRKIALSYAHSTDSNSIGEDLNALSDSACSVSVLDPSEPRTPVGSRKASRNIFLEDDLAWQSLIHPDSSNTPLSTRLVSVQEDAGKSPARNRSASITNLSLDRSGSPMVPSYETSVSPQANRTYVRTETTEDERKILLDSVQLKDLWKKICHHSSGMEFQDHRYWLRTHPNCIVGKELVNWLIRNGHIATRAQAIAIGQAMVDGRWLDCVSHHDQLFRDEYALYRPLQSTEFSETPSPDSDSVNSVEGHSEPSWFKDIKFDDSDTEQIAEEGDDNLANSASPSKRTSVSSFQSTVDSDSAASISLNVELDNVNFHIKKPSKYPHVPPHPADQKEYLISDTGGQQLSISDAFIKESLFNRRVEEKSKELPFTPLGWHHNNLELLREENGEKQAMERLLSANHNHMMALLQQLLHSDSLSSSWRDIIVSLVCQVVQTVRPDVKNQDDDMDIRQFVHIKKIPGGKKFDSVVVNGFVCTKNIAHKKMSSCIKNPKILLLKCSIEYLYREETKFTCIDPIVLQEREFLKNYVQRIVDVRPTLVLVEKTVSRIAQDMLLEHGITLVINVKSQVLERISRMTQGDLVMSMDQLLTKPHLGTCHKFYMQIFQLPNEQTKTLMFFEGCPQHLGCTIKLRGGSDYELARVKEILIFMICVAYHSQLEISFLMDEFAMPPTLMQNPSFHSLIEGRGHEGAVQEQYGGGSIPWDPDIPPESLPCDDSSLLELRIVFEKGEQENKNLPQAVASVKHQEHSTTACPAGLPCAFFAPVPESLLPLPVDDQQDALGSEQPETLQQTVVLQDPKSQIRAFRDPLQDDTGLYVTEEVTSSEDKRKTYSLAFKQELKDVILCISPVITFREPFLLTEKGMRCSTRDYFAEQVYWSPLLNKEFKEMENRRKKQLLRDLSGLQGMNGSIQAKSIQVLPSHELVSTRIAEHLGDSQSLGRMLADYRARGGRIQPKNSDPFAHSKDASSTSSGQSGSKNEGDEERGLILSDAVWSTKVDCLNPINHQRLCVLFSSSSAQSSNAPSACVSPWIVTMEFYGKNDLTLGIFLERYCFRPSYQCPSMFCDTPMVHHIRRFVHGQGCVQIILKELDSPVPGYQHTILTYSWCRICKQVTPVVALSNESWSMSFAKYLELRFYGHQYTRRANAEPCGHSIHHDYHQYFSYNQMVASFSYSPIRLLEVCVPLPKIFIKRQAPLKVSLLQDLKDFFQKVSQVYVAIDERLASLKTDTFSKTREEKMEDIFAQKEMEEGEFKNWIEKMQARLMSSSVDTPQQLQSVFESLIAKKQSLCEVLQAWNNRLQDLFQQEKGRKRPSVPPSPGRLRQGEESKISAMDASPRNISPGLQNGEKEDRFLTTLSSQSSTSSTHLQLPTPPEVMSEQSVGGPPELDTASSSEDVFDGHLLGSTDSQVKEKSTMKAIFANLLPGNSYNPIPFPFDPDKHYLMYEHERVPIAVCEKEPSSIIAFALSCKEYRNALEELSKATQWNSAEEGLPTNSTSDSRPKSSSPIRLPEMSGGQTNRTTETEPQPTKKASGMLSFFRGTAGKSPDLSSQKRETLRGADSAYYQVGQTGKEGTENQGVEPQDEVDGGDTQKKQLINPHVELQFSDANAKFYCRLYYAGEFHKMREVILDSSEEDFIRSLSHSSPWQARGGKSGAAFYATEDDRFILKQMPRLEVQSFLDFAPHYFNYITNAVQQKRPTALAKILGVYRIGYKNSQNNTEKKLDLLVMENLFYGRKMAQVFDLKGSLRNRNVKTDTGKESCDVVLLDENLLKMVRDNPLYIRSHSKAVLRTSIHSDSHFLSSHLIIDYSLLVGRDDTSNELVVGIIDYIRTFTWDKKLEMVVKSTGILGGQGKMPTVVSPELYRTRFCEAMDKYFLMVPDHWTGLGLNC
IC50,Structure (SMILES),further results
1 to 10 nM,"Cc1cccc(-c2ccn(-c3nc(N4CCOCC4)c4nc(CN5CCN(C)CC5)sc4n3)n2)c1 [Ex. 34, 4-(2-((4-methylpiperazin-1-yl)methyl)-5-(3-(m-tolyl)-1H-pyrazol-1-yl)thiazolo[5,4-d]pyrimidin-7-yl)morpholine]",–
–,"Cc1cccc(-c2ccn(-c3nc(N4CCOCC4)c4nc(CN5CCN(C)CC5)[nH]c4n3)n2)c1 [Ex. 35, 4-(8-((4-methylpiperazin-1-yl)methyl)-2-(3-(m-tolyl)-1H-pyrazol-1-yl)-9H-purin-6-yl)morpholine]",inhibition at 0.001 µM: 13%
< 1 nM,"Cc1cccc(-c2ccn(-c3nc(N4CCOCC4)c4nc(CN5CC(N6CCCC6)C5)[nH]c4n3)n2)c1 [Ex. 36, 4-(8-((3-(pyrrolidin-1-yl)azetidin-1-yl)methyl)-2-(3-(m-tolyl)-1H-pyrazol-1-yl)-9H-purin-6-yl)morpholine]",–
< 1 nM,"Cc1cccc(-c2ccn(-c3nc(N4CCOCC4)c4sc(-c5cnn(C)c5)cc4n3)n2)c1 [Ex. 37, 4-(6-(1-methyl-1H-pyrazol-4-yl)-2-(3-(m-tolyl)-1H-pyrazol-1-yl)thieno[3,2-d]pyrimidin-4-yl)morpholine]",–
< 1 nM,"Cc1cccc(-c2ccn(-c3cc(N4CCOCC4)c4nc(CN5CCOCC5)[nH]c4n3)n2)c1 [Ex. 38, 4-((7-morpholino-5-(3-(m-tolyl)-1H-pyrazol-1-yl)-3H-imidazo[4,5-b]pyridin-2-yl)methyl)morpholine]",–
< 1 nM,"Cc1cccc(-c2ccn(-c3cc(N4CCOCC4)c4nc(CN5CCN(C)CC5)[nH]c4n3)n2)c1 [Ex. 39, 4-(2-((4-methylpiperazin-1-yl)methyl)-5-(3-(m-tolyl)-1H-pyrazol-1-yl)-3H-imidazo[4,5-b]pyridin-7-yl)morpholine]",–
< 1 nM,"Cc1cccc(-c2ccn(-c3cc(N4CCOCC4)c4nc(CN5CC[C@@H](N(C)C)C5)[nH]c4n3)n2)c1 [Ex. 41, (R)—N,N-dimethyl-1-((7-morpholino-5-(3-(m-tolyl)-1H-pyrazol-1-yl)-3H-imidazo[4,5-b]pyridin-2-yl)methyl)pyrrolidin-3-amine]",–
–,"Cc1cccc(-c2ccn(-c3cc(N4CCOCC4)c4nc(CN5CCC(N6CCOCC6)CC5)[nH]c4n3)n2)c1 [Ex. 42, 4-(1-((7-morpholino-5-(3-(m-tolyl)-1H-pyrazol-1-yl)-3H-imidazo[4,5-b]pyridin-2-yl)methyl)piperidin-4-yl)morpholine]",inhibition at 1 µM (@ 1000 nM): 98%
< 1 nM,"Cc1cccc(-c2ccn(-c3nc(N4CCOCC4)c4nc(CN5CCC(N6CCC6)C(F)C5)[nH]c4n3)n2)c1 (stereo not drawn) [Ex. 43, 4-(8-((4-(azetidin-1-yl)-3-fluoropiperidin-1-yl)methyl-2-(3-m-tolyl)-1H-pyrazol-1-yl)-9H-purin-6-yl)morpholine]",–
< 1 nM,"Cc1cccc(-c2ccn(-c3nc(N4CCOCC4)c4nc(-c5cnn(C)c5)[nH]c4n3)n2)c1 [Ex. 44, 4-(8-(1-methyl-1H-pyrazol-4-yl)-2-(3-(m-tolyl)-1H-pyrazol-1-yl)-9H-purin-6-yl)morpholine]",–
< 1 nM,"Cc1cccc(-c2ccn(-c3cc(N4CCOCC4)c4nc(CN5CC[C@H](N(C)C)C5)[nH]c4n3)n2)c1 [Ex. 46, (S)—N,N-dimethyl-1-((7-morpholino-5-(3-(m-tolyl)-1H-pyrazol-1-yl)-3H-imidazo[4,5-b]pyridin-2-yl)methyl)pyrrolidin-3-amine]",–
< 1 nM,"Cc1cccc(-c2ccn(-c3nc(N4CCOCC4)c4nc(CN5CCC(N6CCC6)C(F)C5)sc4n3)n2)c1 (stereo not drawn) [Ex. 47, 4-(2-((4-(azetidin-1-yl)-3-fluoropiperidin-1-yl)methyl)-5-(3-(m-tolyl)-1H-pyrazol-1-yl)thiazolo[5,4-d]pyrimidin-7-yl)morpholine]",–
1 to 10 nM,"Cc1cccc(-c2ccn(-c3cc(N4CCOCC4)c4nc(CN5CC(N(C)C)C5)[nH]c4n3)n2)c1 [Ex. 48, N,N-dimethyl-1-((7-morpholino-5-(3-(m-tolyl)-1H-pyrazol-1-yl)-3H-imidazo[4,5-b]pyridin-2-yl)methyl)azetidin-3-amine]",–
< 1 nM,"Cc1cccc(-c2ccn(-c3nc(N4CCOCC4)c4nc(-c5cnn(C)c5)sc4n3)n2)c1 [Ex. 49, 4-(2-(1-methyl-1H-pyrazol-4-yl)-5-(3-(m-tolyl)-1H-pyrazol-1-yl)thiazolo[5,4-d]pyrimidin-7-yl)morpholine]",–
1 to 10 nM,"Cc1cccc(-c2ccn(-c3nc(N4CCOCC4)c4sc(CN5CCC6(OCCO6)C(F)C5)cc4n3)n2)c1 (stereo not drawn) [Ex. 50, 6-fluoro-8-((4-morpholino-2-(3-(m-tolyl)-1H-pyrazol-1-yl)thieno[3,2-d]pyrimidin-6-yl)methyl)-1,4-dioxa-8-azaspiro[4.5]decane]",–
< 1 nM,"Cc1cccc(-c2ccn(-c3nc(N4CCOCC4)c4sc(CN5CCC(N(C)C)C(F)C5)cc4n3)n2)c1 (stereo not drawn) [Ex. 51, 3-fluoro-N,N-dimethyl-1-((4-morpholino-2-(3-(m-tolyl)-1H-pyrazol-1-yl)thieno[3,2-d]pyrimidin-6-yl)methyl)piperidin-4-amine]",–
< 1 nM,"Cc1cccc(-c2ccn(-c3cc(N4CCOCC4)c4nc(CN5CCC(N(C)C)C(F)C5)[nH]c4n3)n2)c1 (stereo not drawn) [Ex. 52, 3-fluoro-N,N-dimethyl-1-((7-morpholino-5-(3-(m-tolyl)-1H-pyrazol-1-yl)-3H-imidazo[4,5-b]pyridin-2-yl)methyl)piperidin-4-amine]",–
–,"Cc1cccc(-c2ccn(-c3nc(N4CCOCC4)c4sc(CO)c(C)c4n3)n2)c1 [Ex. 53, (7-methyl-4-morpholino-2-(3-(m-tolyl)-1H-pyrazol-1-yl)thieno[3,2-d]pyrimidin-6-yl)methanol]",inhibition at 0.001 µM: 17%
< 1 nM,"Cc1cccc(-c2ccn(-c3nc(N4CCOCC4)c4sc(CN5CCN(S(C)(=O)=O)CC5)c(C)c4n3)n2)c1 [Ex. 54, 4-(7-methyl-6-((4-(methylsulfonyl)piperazin-1-yl)methyl)-2-(3-(m-tolyl)-1H-pyrazol-1-yl)thieno[3,2-d]pyrimidin-4-yl)morpholine]",–
< 1 nM,"Cc1cccc(-c2ccn(-c3nc(N4CCOCC4)c4sc(CN5CCC(N(C)C)C(F)C5)c(C)c4n3)n2)c1 (stereo not drawn) [Ex. 55, 3-fluoro-N,N-dimethyl-1-((7-methyl-4-morpholino-2-(3-(m-tolyl)-1H-pyrazol-1-yl)thieno[3,2-d]pyrimidin-6-yl)methyl)piperidin-4-amine]",–
–,"Cc1cccc(-c2ccn(-c3nc(N4CCOCC4)c4nc(CN5CCOCC5)n(C)c4n3)n2)c1 [Ex. 56, 4-((9-methyl-6-morpholino-2-(3-(m-tolyl)-1H-pyrazol-1-yl)-9H-purin-8-yl)methyl)morpholine]",inhibition at 0.003 µM (@ 3 nM): 94%
1 to 10 nM,"Cc1cccc(-c2ccn(-c3nc(N4CCOCC4)c4nc(CN5CCN(S(C)(=O)=O)CC5)n(C)c4n3)n2)c1 [Ex. 57, 4-(9-methyl-8-((4-(methylsulfonyl)piperazin-1-yl)methyl)-2-(3-(m-tolyl)-1H-pyrazol-1-yl)-9H-purin-6-yl)morpholine]",–
< 1 nM,"Cc1cccc(-c2ccn(-c3nc(N4CCOCC4)c4sc(CN5CCC(N6CCC6)C(F)C5)c(C)c4n3)n2)c1 (stereo not drawn) [Ex. 58, 4-(6-((4-(azetidin-1-yl)-3-fluoropiperidin-1-yl)methyl)-7-methyl-2-(3-(m-tolyl)-1H-pyrazol-1-yl)thieno[3,2-d]pyrimidin-4-yl)morpholine]",–
1 to 10 nM,"Cc1cccc(-c2ccn(-c3nc(N4CCOCC4)c4sc(C(=O)N5CCN(C)CC5)c(C)c4n3)n2)c1 [Ex. 59, (7-methyl-4-morpholino-2-(3-(m-tolyl)-1H-pyrazol-1-yl)thieno[3,2-d]pyrimidin-6-yl)(4-methylpiperazin-1-yl)methanone]",–

# Reference: patent US20230265103A1 (TME Therapeutics LLC, priority 2021, published 2023)
